Measurements: patent US5891882A, “Benzopyranopyrrole and benzopyranopyridine α-1 adenergic compounds” (priority 1997, dated 1999)
Counter-ions that a name gives are not always drawn. Like-named read-outs stand apart in the source and are kept apart here.

How the values were obtained:
[1] = target: T1, α-1A adrenoreceptor (rat vas deferens) (Rattus norvegicus, UniProt P43140); experiment: Functional antagonism: inhibition of phenylephrine-induced contraction of rat vas deferens; format: cell-based
T1 construct: from tissue; host or cells: rat vas deferens
T1 sequence (P43140 1-466): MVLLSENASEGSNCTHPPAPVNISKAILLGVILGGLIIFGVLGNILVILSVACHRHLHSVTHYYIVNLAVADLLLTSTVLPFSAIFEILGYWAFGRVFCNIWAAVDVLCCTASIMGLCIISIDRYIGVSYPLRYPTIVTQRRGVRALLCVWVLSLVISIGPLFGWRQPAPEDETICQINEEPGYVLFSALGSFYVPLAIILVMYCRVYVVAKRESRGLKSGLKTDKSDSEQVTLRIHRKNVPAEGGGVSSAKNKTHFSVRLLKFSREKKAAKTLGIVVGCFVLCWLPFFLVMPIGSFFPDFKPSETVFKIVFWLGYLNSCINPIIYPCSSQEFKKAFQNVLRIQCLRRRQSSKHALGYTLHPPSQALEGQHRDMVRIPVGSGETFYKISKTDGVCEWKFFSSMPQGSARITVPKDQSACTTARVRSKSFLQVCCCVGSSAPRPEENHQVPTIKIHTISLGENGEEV
Source text: Functional assays indicative of pharmacologically defined α-1 adrenoreceptors were used to further characterize compounds. Inhibition of phenylephrine (PE)-induced contraction of canine prostate smooth muscle can be correlated with α-1A adrenoreceptor activation. […] For each of these models, agonist dose response curves were repeated against increasing concentrations of test agent to derive a Schild plot [log ([…]) against log (molarity of test agent)] to determine the pA2.

[2] = target: T2, α-1b adrenoreceptor (hamster) (Mesocricetus auratus, UniProt P18841); experiment: In vitro [3H]-prazosin radioligand binding, cloned α-1b adrenoreceptor expressed in LTK cells
T2 construct: expressed in transfected cells; cDNA from TULCO; membranes
T2 sequence (P18841 1-515): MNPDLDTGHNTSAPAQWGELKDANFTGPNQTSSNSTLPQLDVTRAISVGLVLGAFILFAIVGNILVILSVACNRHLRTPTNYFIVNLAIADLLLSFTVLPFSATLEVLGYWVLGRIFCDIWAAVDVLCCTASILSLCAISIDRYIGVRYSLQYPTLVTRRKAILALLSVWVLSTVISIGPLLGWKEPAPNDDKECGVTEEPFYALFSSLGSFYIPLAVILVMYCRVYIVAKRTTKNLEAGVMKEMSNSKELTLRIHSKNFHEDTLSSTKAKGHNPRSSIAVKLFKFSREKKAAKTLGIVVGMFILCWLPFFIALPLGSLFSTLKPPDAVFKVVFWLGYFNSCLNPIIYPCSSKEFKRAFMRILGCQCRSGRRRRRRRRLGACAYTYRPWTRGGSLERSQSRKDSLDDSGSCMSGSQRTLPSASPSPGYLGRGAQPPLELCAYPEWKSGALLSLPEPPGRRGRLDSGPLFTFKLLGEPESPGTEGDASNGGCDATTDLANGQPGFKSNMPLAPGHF
Source text: The cDNA clones encoding the α-1 adrenoreceptors (α-1a, α-1b, and α-1d) were obtained from TULCO (Triangle Universities Licensing Consortium, Research Triangle Park, N.C.) and inserted into the eukaryotic expression vector SnaB30. In this vector, expression of the adrenoreceptor gene is under the transcriptional control of an SV40 early promoter. Positive drug selection is provided by a neomycin-resistance gene. Mouse fibroblast cells (LTK) were transfected with the α1 expression plasmids and grown in Dulbecco's modified Eagle's medium (DMEM) containing 10% fetal calf serum and […]. Stable G418-resistant parental lines were generated, with successful expression of adrenoreceptor protein monitored using radioligand binding techniques. Stable single cell clones derived from the parental lines were screened in adrenoreceptor binding assays to identify clones having high adrenoreceptor density. Roller bottle cultures of the cloned lines were used to provide cell membranes for subsequent adrenoreceptor binding characterization studies. A cell line containing the SnaB30 vector expressing the human erythropoietin gene served as a negative control.
For adrenoreceptor binding assays, large scale membrane preparations were utilized in which 6 million cells were seeded into small (450 cm^2) Corning tissue culture roller bottles. 200 mL of DMEM containing 10% fetal calf serum and 300 μM G418 were added to each roller bottle. A 95% air/5% CO2 gas mixture (sterile) was injected into each roller bottle prior to sealing. The bottles were then incubated at 37° C. on a roller rack for 5 days. Cells were re-fed with fresh medium after 3 days in culture.
On the fifth day of culture, growth medium was removed from cells grown in roller bottles, and the cells were washed twice with PBS (Sigma, 120 mM NaCl, 2.7 mM KCl, 10 mM Na2 HPO4 --NaH2 PO4, pH=7.4). Cells were detached from the roller bottles by incubating for 15 minutes at 37° C. in a Tris-EDTA solution (10 mM Tris, 100 mM NaCl, 1 mM EDTA, pH=7.4). The cell suspension from each roller bottle was decanted into tared centrifuge tubes and kept on ice. An aliquot of each cell suspension was generally taken for cell counting. Cells were centrifuged at 3000×G for 5 min at 2°-4° C., washed with PBS and recentrifuged. The supernatant was decanted and the pellet weighed to determine the wet weight of cells. Cells were washed a final time in 40 vol 5 mM Tris-HCl, 5 mM EDTA, pH=7.7, and centrifuged at 40,000×G for 10 minutes. Cells were homogenized in 10 mL of 50 mM Tris-HCl, 5 mM EDTA (pH=7.4) and diluted to 40 mL/tube. Homogenates were centrifuged at 40,000×G for 10 minutes. The supernatant was decanted and the pellets rehomogenized in 50 mM Tris-HCl (pH=7.4) and centrifuged as before. The supernatant was decanted and the homogenate resuspended in 6.25 volumes (per gram wet weight) of 50 mM Tris-HCl and aliquots of the pooled homogenates frozen in liquid N2 and stored at -70° C. until the time of assay. Rat submaxillary glands were used for α-1A adrenoreceptors and were prepared essentially as described (Michel, A. D., Loury, D. N. and Whiting, R. L., Brit. J. Pharmacol. 98: 83-889 (1989)).
Receptor binding assays for α-1 adrenoreceptors were performed essentially as described by Greengrass and Bremner (Eur. J. Pharmacol. 55: 323-326 (1979)). […] Radioactivity was determined by standard liquid scintillation techniques. Data were analyzed as previously described (Hancock, A. A., Kyncl, J. J., Martin, Y. C. and DeBernardis, J. F., J Receptor Res. 8: 23-46 (1988)).

[3] = cloned hamster α-1b in LTK cells, [3H]prazosin 0.2 nM, read-out: Radioligand Binding (Ki; nM) 1b (Hamster)

Ki [2, 3] [nM] | In Vitro Characterization (pA2) Rat Vas ([1]; rat vas deferens, phenylephrine-induced contraction, Schild plot) | SMILES | Kb [1] [nM] | Ki [2] [nM]
 |  | COc1cccc2c1[C@@H]1CCN(CCCCn3c(=O)[nH]c4c(sc5ccccc54)c3=O)C[C@H]1CO2 (relative stereo) [Example 87, 3-[4-((±)-trans-10-Methoxy-1,3,4,4a,5,10b-hexahydro-2H-[1]-benzopyrano[3,4-c]pyrido-3-yl)butyl]-[1]-benzthieno[3,2-d]pyrimidine-2,4(1H,3H)-dione hydrochloride] | 2.14 | 2.86
 |  | COc1cccc2c1[C@@H]1CCN(CCCCn3c(=O)[nH]c4c(sc5cccnc54)c3=O)C[C@H]1CO2 (relative stereo) [Example 88, 3-[4-((±)-trans-10-Methoxy-1,3,4,4a,5,10b-hexahydro-2H-[1]-benzopyrano[3,4-c]pyrido-3-yl)butyl]-pyrido[2',3':4,5]thieno[3,2-d]pyrimidine-2,4(1H,3H)-dione hydrochloride] | 1.82 | 0.791
1.46 |  | COc1cc2[nH]c(=O)n(CCN3CC[C@H]4c5c(OC)cccc5OC[C@@H]4C3)c(=O)c2cc1OC (relative stereo) [Example 91, 3-[2-((±)-trans-10-Methoxy-1,3,4,4a,5,10b-hexahydro-2H-[1]-benzopyrano[3,4-c]pyrido-3-yl)ethyl]-6,7-dimethoxy-quinazoline-2,4(1H,3H)-dione hydrochloride] |  | 
10.5 | 9.02 | COc1ccc2c(n1)sc1c(=O)n(CCCCN3C[C@@H]4COc5cccc(OC)c5[C@@H]4C3)c(=O)[nH]c12 [Example 33, hydrochloride] |  | 
